Results: PubChem BioAssay AID256 (DTP/NCI, 2004)
“And” between values parts separate entries of the source, which are not always exact repeats. Equal entries are not always repeated. Inconclusive results and toxic doses are left out. Rule for the calls: active = survival T/C of 150% or more; inactive = T/C below 125% in these data. Residues, ends and D or L forms follow the SMILES beside them.

Tested on: CD2F1 mice, L1210 leukemia ip, survival T/C
Test: NCI In Vivo Anticancer Drug Screen. Data for tumor model L1210 Leukemia (intraperitoneal) in CD2F1 (CDF1) mice
Conditions: higher = longer survival
Procedure, shortened: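 Compound-dosed mice with transplantable tumor versus matched vehicle controls; endpoint ratio T/C reported.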

[1] = endpoint: mean survival time, dose: 25.0 mg/kg/injection, schedule: Q04DX002 (ip), vehicle: saline with Tween-80
[2] = endpoint: mean survival time, dose: 50.0 mg/kg/injection, schedule: Q01DX009 (ip), vehicle: saline with Tween-80
[3] = endpoint: mean survival time, dose: 50.0 mg/kg/injection, schedule: Q04DX002 (ip), vehicle: saline with Tween-80
[4] = endpoint: mean survival time, dose: 100.0 mg/kg/injection, schedule: Q01DX009 (ip), vehicle: saline with Tween-80
[5] = endpoint: mean survival time, dose: 100.0 mg/kg/injection, schedule: Q04DX002 (ip), vehicle: saline with Tween-80
[6] = endpoint: mean survival time, dose: 400.0 mg/kg/injection, schedule: Q04DX002 (ip), vehicle: saline with Tween-80
[7] = endpoint: mean survival time, dose: 25.0 mg/kg/injection, schedule: Q01DX009 (ip), vehicle: saline
[8] = endpoint: mean survival time, dose: 50.0 mg/kg/injection, schedule: Q01DX009 (ip), vehicle: saline
[9] = endpoint: mean survival time, dose: 100.0 mg/kg/injection, schedule: Q01DX009 (ip), vehicle: saline
[10] = endpoint: mean survival time, dose: 100.0 mg/kg/injection, schedule: Q01DX001 (ip), vehicle: saline with Tween-80
[11] = endpoint: mean survival time, dose: 200.0 mg/kg/injection, schedule: Q01DX001 (ip), vehicle: saline with Tween-80
[12] = endpoint: mean survival time, dose: 400.0 mg/kg/injection, schedule: Q01DX001 (ip), vehicle: saline with Tween-80
[13] = endpoint: mean survival time, dose: 100.0 mg/kg/injection, schedule: Q04DX003 (ip), vehicle: saline with Tween-80
[14] = endpoint: mean survival time, dose: 200.0 mg/kg/injection, schedule: Q01DX009 (ip), vehicle: saline with Tween-80
[15] = endpoint: mean survival time, dose: 200.0 mg/kg/injection, schedule: Q04DX003 (ip), vehicle: saline with Tween-80
[16] = endpoint: mean survival time, dose: 400.0 mg/kg/injection, schedule: Q01DX009 (ip), vehicle: saline with Tween-80
[17] = endpoint: mean survival time, dose: 25.0 mg/kg/injection, schedule: Q04DX003 (ip), vehicle: saline with Tween-80
[18] = endpoint: mean survival time, dose: 50.0 mg/kg/injection, schedule: Q04DX003 (ip), vehicle: saline with Tween-80
[19] = endpoint: mean survival time, dose: 200.0 mg/kg/injection, schedule: Q04DX002 (ip), vehicle: saline with Tween-80
[20] = endpoint: mean survival time, dose: 100.0 mg/kg/injection, schedule: Q01DX009 (ip), vehicle: other
[21] = endpoint: mean survival time, dose: 200.0 mg/kg/injection, schedule: Q01DX009 (ip), vehicle: other

Measured: T/C

COC(=O)c1csc(NC2OC(CO)C(O)C2O)n1 (centres undefined)
inactive: endpoint: median survival time, dose: 45.9 mg/kg/injection, schedule: Q01DX005 (ip), vehicle: saline 100 % of control | endpoint: median survival time, dose: 91.8 mg/kg/injection, schedule: Q01DX005 (ip), vehicle: saline 100 % of control | endpoint: median survival time, dose: 183.6 mg/kg/injection, schedule: Q01DX005 (ip), vehicle: saline 97 % of control

CCOc1ccccc1OC(=O)Nc1ccc(OC)cc1
inactive: endpoint: mean survival time, dose: 25.0 mg/kg/injection, schedule: Q01DX009 (ip), vehicle: saline with Tween-80 97 % of control | [1] 114 % of control | [2] 89 % of control | [3] 104 % of control | [4] 97 % of control | [5] 94 % of control and 107 % of control | [6] 98 % of control

N#Cc1cccnc1.NCCNCCN.[Br-].[Pt+4]
inactive: endpoint: mean survival time, dose: 12.5 mg/kg/injection, schedule: Q01DX009 (ip), vehicle: saline 95 % of control | [7] 103 % of control | [8] 101 % of control | [9] 98 % of control | endpoint: mean survival time, dose: 200.0 mg/kg/injection, schedule: Q01DX009 (ip), vehicle: saline 98 % of control

O=C1/C(=C/c2ccccc2)CCSc2ccccc21
inactive: [10] 90 % of control | [11] 94 % of control | [12] 90 % of control

CN1COc2cc3c(cc2C1)OCN(C)C3
inactive: [10] 100 % of control | [11] 100 % of control

Cc1ccc(S(=O)(=O)O/N=C2/CCC(C)(C)c3ccccc32)cc1
inactive: [4] 102 % of control | [13] 102 % of control | [14] 102 % of control | [15] 103 % of control | [16] 94 % of control | endpoint: mean survival time, dose: 400.0 mg/kg/injection, schedule: Q04DX003 (ip), vehicle: saline with Tween-80 96 % of control

FC1(F)C(Cl)=[C]([Hg][C]2=C(Cl)C(F)(F)C(F)(F)C(F)(F)C2(F)F)C(F)(F)C(F)(F)C1(F)F
inactive: endpoint: mean survival time, dose: 37.5 mg/kg/injection, schedule: Q04DX003 (ip), vehicle: saline 104 % of control | endpoint: mean survival time, dose: 75.0 mg/kg/injection, schedule: Q01DX001 (ip), vehicle: saline 106 % of control | endpoint: mean survival time, dose: 75.0 mg/kg/injection, schedule: Q04DX003 (ip), vehicle: saline 97 % of control | endpoint: mean survival time, dose: 150.0 mg/kg/injection, schedule: Q01DX001 (ip), vehicle: saline 95 % of control

CNC1(Cc2ccc(F)cc2)CCC1
inactive: [7] 100 % of control | [8] 102 % of control | [9] 100 % of control

CC12CCC3C(CCC(CC(=O)O)C3(C)CC(=O)O)C1CCC2=O (centres undefined)
inactive: [10] 98 % of control | [11] 97 % of control | [12] 97 % of control

COc1cccc(OC)c1C(c1c(OC)cccc1OC)c1c(OC)cccc1OC
inactive: [4] 98 % of control | [14] 103 % of control | [16] 102 % of control

O=C(O)c1cc2ccccc2o1
inactive: [10] 94 % of control | [13] 95 % of control | [11] 98 % of control | [15] 94 % of control

CC1=Nc2ccccc2N2C1=CC1=C(C(=O)c3cc4ccccc4cc3C1=O)C2C (centres undefined)
inactive: endpoint: mean survival time, dose: 12.5 mg/kg/injection, schedule: Q04DX003 (ip), vehicle: saline with Tween-80 101 % of control | [17] 122 % of control | [18] 101 % of control | endpoint: mean survival time, dose: 200.0 mg/kg/injection, schedule: Q04DX003 (ip), vehicle: saline 94 % of control | endpoint: mean survival time, dose: 400.0 mg/kg/injection, schedule: Q04DX003 (ip), vehicle: saline 90 % of control

CC(C)C(NC(=O)C(CCCN=C(N)N)NC(=O)C(N)CCCCN)C(N)=O (stereo not drawn) (H-Lys-Arg-Val-NH2; configuration not given here)
inactive: endpoint: mean survival time, dose: 12.5 mg/kg/injection, schedule: Q01DX009 (ip), vehicle: water 101 % of control | endpoint: mean survival time, dose: 25.0 mg/kg/injection, schedule: Q01DX009 (ip), vehicle: water 101 % of control | endpoint: mean survival time, dose: 50.0 mg/kg/injection, schedule: Q01DX009 (ip), vehicle: water 94 % of control | endpoint: mean survival time, dose: 100.0 mg/kg/injection, schedule: Q01DX009 (ip), vehicle: water 97 % of control | endpoint: mean survival time, dose: 200.0 mg/kg/injection, schedule: Q01DX009 (ip), vehicle: water 95 % of control

O=C(Oc1ccc(O)cc1)N(c1cccc2ccccc12)c1cccc2ccccc12
inactive: [1] 100 % of control | [3] 95 % of control | [5] 91 % of control and 98 % of control | [6] 95 % of control

CC(Cl)S(=O)(=O)c1ccccc1 (centres undefined)
inactive: [5] 104 % of control | [19] 96 % of control | [6] 96 % of control

COc1ccc(NC(=O)Oc2ccc(Cl)cc2Cl)c(Cl)c1
inactive: endpoint: mean survival time, dose: 25.0 mg/kg/injection, schedule: Q01DX009 (ip), vehicle: Klucel (hydroxypropylcellulose) (HPC) 95 % of control | endpoint: mean survival time, dose: 50.0 mg/kg/injection, schedule: Q01DX009 (ip), vehicle: Klucel (hydroxypropylcellulose) (HPC) 95 % of control and 107 % of control | endpoint: mean survival time, dose: 100.0 mg/kg/injection, schedule: Q01DX009 (ip), vehicle: Klucel (hydroxypropylcellulose) (HPC) 98 % of control and 104 % of control | endpoint: mean survival time, dose: 100.0 mg/kg/injection, schedule: Q04DX003 (ip), vehicle: Klucel (hydroxypropylcellulose) (HPC) 98 % of control | endpoint: mean survival time, dose: 200.0 mg/kg/injection, schedule: Q01DX009 (ip), vehicle: Klucel (hydroxypropylcellulose) (HPC) 120 % of control and 102 % of control | endpoint: mean survival time, dose: 200.0 mg/kg/injection, schedule: Q04DX003 (ip), vehicle: Klucel (hydroxypropylcellulose) (HPC) 104 % of control | endpoint: mean survival time, dose: 400.0 mg/kg/injection, schedule: Q04DX003 (ip), vehicle: Klucel (hydroxypropylcellulose) (HPC) 112 % of control

O/N=C1\CCCCC1C(O)(/C(=N/O)c1ccccc1)c1ccccc1 (centres undefined)
inactive: [10] 96 % of control | [11] 86 % of control | [12] 91 % of control

O=C(O)c1cccc2ccc(F)cc12
inactive: endpoint: median survival time, dose: 50.0 mg/kg/injection, schedule: Q04DX002 (ip), vehicle: saline with Tween-80 100 % of control | endpoint: median survival time, dose: 100.0 mg/kg/injection, schedule: Q04DX002 (ip), vehicle: saline with Tween-80 100 % of control | endpoint: median survival time, dose: 200.0 mg/kg/injection, schedule: Q04DX002 (ip), vehicle: saline with Tween-80 100 % of control | endpoint: median survival time, dose: 400.0 mg/kg/injection, schedule: Q04DX002 (ip), vehicle: saline with Tween-80 88 % of control

CC(C)NC(=O)N(c1ccccc1)C(C)C
inactive: [4] 102 % of control | [14] 90 % of control

C=C(Br)CNC(=O)OCCCC
inactive: [2] 88 % of control

CCOC(=O)c1c(C)c2c(n1C)CC/C(=C\N1CCCCC1)C2=O
inactive: [5] 111 % of control | [19] 118 % of control | [6] 96 % of control

O=C(O)C1C2CCCCC2=C2CCCCC2C1C(=O)O (centres undefined)
inactive: [4] 98 % of control | [14] 104 % of control

C/C(=N\NC(=S)N1CC2CCC(CC2)C1)c1nccs1
inactive: endpoint: median survival time, dose: 3.13 mg/kg/injection, schedule: Q01DX009 (ip), vehicle: saline with Tween-80 103 % of control | endpoint: median survival time, dose: 6.25 mg/kg/injection, schedule: Q01DX009 (ip), vehicle: saline with Tween-80 112 % of control | endpoint: median survival time, dose: 12.5 mg/kg/injection, schedule: Q01DX009 (ip), vehicle: saline with Tween-80 113 % of control and 114 % of control and 110 % of control | endpoint: median survival time, dose: 25.0 mg/kg/injection, schedule: Q01DX009 (ip), vehicle: saline with Tween-80 115 % of control and 104 % of control | endpoint: median survival time, dose: 50.0 mg/kg/injection, schedule: Q01DX009 (ip), vehicle: saline with Tween-80 120 % of control and 95 % of control and 98 % of control

O=C(O)CCCc1ccc(Oc2ccccc2)cc1
inactive: [20] 94 % of control | endpoint: mean survival time, dose: 100.0 mg/kg/injection, schedule: Q04DX003 (ip), vehicle: other 106 % of control | [21] 95 % of control | endpoint: mean survival time, dose: 200.0 mg/kg/injection, schedule: Q04DX003 (ip), vehicle: other 93 % of control | endpoint: mean survival time, dose: 400.0 mg/kg/injection, schedule: Q01DX009 (ip), vehicle: other 96 % of control | endpoint: mean survival time, dose: 400.0 mg/kg/injection, schedule: Q04DX003 (ip), vehicle: other 95 % of control

O=[N+]([O-])c1ccc(S(=O)(=O)OCc2ccccc2OS(=O)(=O)c2ccc([N+](=O)[O-])cc2)cc1
inactive: [17] 109 % of control | [18] 106 % of control | [13] 93 % of control

CCN(CC)C(=O)c1ccc[n+](Cc2ccc(Cl)c(Cl)c2)c1
inactive: endpoint: mean survival time, dose: 100.0 mg/kg/injection, schedule: Q04DX003 (ip), vehicle: saline 103 % of control

CCOC(=O)NC(C)(C)CN(C(=O)OCC)C(C)C
inactive: [20] 102 % of control | [21] 104 % of control
